Assay results as given in patent publication US9018248B2, “Fatty acid derivatives of catechins and methods of their use” (Genesis Group Inc., priority 2010, dated 2015).

Experiments:
[1] = tested on: LPS-induced NO production; assay: LPS-induced NO production in RAW 264.7 macrophage (Griess reaction); type: cell-based, murine; details: LPS-stimulated RAW264.7 macrophages
Experimental: RAW 264.7 cells were cultured in Rosewell Park Memorial Institute (RPMI) 1640 media (without phenol red) supplemented with 10% endotoxin-free, heat-inactivated fetal calf serum, 100 units/ml penicillin, and 100 μg/ml streptomycin. When the cells reached a density of 2-3×10^6 cells/ml, they were activated by incubation in a medium containing E. coli lipopolysaccharide (LPS) (100 ng/ml). Various concentrations of compounds of the disclosure in dimethyl sulphoxide (DMSO) were added together with LPS. Cells were treated with 0.05% DMSO as the vehicle control. The stimulated murine macrophage cell line RAW 264.7 cells were washed with PBS and lysed in an ice-cold RIPA buffer (Tris-HCl, pH 7.2, 25 mM; 0.1% SDS; 1% Triton X-100; 1% sodium deoxycholate; 0.15 M NaCl; 1 mM EDTA) containing 1 mM phenylmethyl sulphonyl fluoride (PMSF), 10 μg/mL aprotinin, 1 mM sodium ortho-vanadate, and 5 μg/mL leupeptin. Protein concentrations were determined using the BCA method (Pierce, Rockford, Ill.). The samples (50 μg of protein) were mixed with 5-fold of sample buffer containing 0.3 M Tris-HCl (pH 6.8), 25% 2-mercaptoethanol, 12% sodium dodecyl sulphate (SDS), 25 mM EDTA, 20% glycerol, and 0.1% bromophenol blue. The mixtures were boiled at 100° C. for 5 min, prerun on a stacking gel, and then resolved by 12% SDS-polyacrylamide minigels at a constant current of 20 mA. For western blot, proteins on the gel were electro-transferred onto a […] immobile polyvinylidene fluoride (PVDF) membrane with a transfer buffer composed of 25 mM Tris-HCl (pH 8.9), 192 mM glycine, and 20% methanol, as described by Pan et al. (2000). Membrane blocking was then carried out at room temperature for 1 h in blocking solution (20 mM Tris-HCl pH 7.4, 125 mM NaCl, 0.2% Tween 20, 1% bovine serum albumin, and 0.1% sodium azide). The membrane was incubated with the primary antibody of iNOS and COX-2 at 4° C. overnight. The membranes were subsequently probed with selected IgG antibody conjugated to horseradish peroxidase (Transduction Laboratories, Lexington, Ky.) and visualized using enhanced chemiluminescence (ECL, Amersham). The densities of the bands were quantitated using a densitometer (AlphaImager 2200 System). All the membranes were stripped and reprobed for β-actin (Sigma Chemical Co., St. Louis, Mo.) as loading control. […] The inhibition of iNOS induction by compounds of the disclosure may be due to down regulation of iNOS gene expression. […] (7b) Inhibition Against LPS-Induced NO Production in RAW 264.7 Macrophage The LPS-induced NO production by the macrophages was determined as nitrite concentration in the culture medium according to the Griess reaction. […] The absorbance of the mixture at 550 nm was measured with an ELISA plate reader (Dynatech MR-7000; Dynatech Laboratories, Chantilly, Va., USA). […]

PGE2 production = PGE2 production in LPS-stimulated RAW264.7 macrophages (EIA); type: cell-based, mouse; details: FIG. 10
Text: The level of PGE2 released into the culture medium was quantified by a specific enzyme immunoassay (EIA) method using a ACE™ EIA kit according to the manufacturer's instructions. FIG. 10 illustrates that the production of the inflammatory mediator PGE2 was inhibited by 10a (EGCG-DPA). The EGCG ester 10a has improved lipophilicity and cellular absorption, and therefore provides synergistic effects with respect to the DPA (a competitive inhibitor against the omega-6 fatty acid arachidonic acid) for the COX enzymes) and EGCG (COX-2 inhibitor) moieties.

COX-2 mRNA = COX-2 mRNA expression in LPS-stimulated RAW264.7 macrophages (RT-PCR); type: cell-based, mouse; details: FIG. 12
Experimental: (§1) Total RNA was isolated from mouse macrophage RAW264.7 cell using Trizol Reagent according to the manufacturer's instructions. Changes in the steady-state concentration of mRNA in iNOS, COX-2, and β-actin (control) were assessed by RT-PCR. Total RNA (2 μg) was converted to cDNA in a series of standard 10 μl reverse transcription reactions. DNA amplification was carried out in “Ready To Go” PCR Beads. The initial conditions were 95° C. for 5 min. Amplification 30 cycles of iNOS were 95° C. for 40 s, 65° C. for 60 s, and 72° C. for 2 min, followed by a 10 min extension at 72° C. The thermal cycle conditions of COX-2 were initiated at 95° C. for […], then 30 cycles of amplification (94° C. for 45 s, 55° C. for 60 s, and 72° C. for 2 min) were performed followed by 10 min extension at 72° C. The PCR products were separated by electrophoresis on a 1% agarose gel and visualized by ethidium bromide staining. Amplification of β-actin served as a control for sample loading and integrity. PCR was performed on the cDNA using the following sense and antisense primer: iNOS, forward primer 5′-[…]-[…]-3′ (2944-2968), reverse primer 5′-[…]-[…]-3′ (3419-3443); COX-2, forward primer 5′-[…]-[…]-3′ (1094-1117), reverse primer 5′-[…]-3′ (1931-1954); β-actin, forward primer 5′-[…]-3′, reverse primer 5′-[…]-3′. Confirmation of the correct amplicons was obtained by direct DNA sequencing of the PCR products.

iNOS mRNA = iNOS mRNA expression in LPS-stimulated RAW264.7 macrophages (RT-PCR); type: cell-based, mouse; details: FIG. 12
Experimental: as §1

COX-2 = COX-2 protein expression in LPS-stimulated RAW 264.7 macrophages (western blot); type: cell-based, murine; details: LPS 100 ng/ml, RAW 264.7, western blot
Experimental: RAW 264.7 cells were cultured in Rosewell Park Memorial Institute (RPMI) 1640 media (without phenol red) supplemented with 10% endotoxin-free, heat-inactivated fetal calf serum, 100 units/ml penicillin, and 100 μg/ml streptomycin. When the cells reached a density of 2-3×10^6 cells/ml, they were activated by incubation in a medium containing E. coli lipopolysaccharide (LPS) (100 ng/ml). Various concentrations of compounds of the disclosure in dimethyl sulphoxide (DMSO) were added together with LPS. Cells were treated with 0.05% DMSO as the vehicle control. The stimulated murine macrophage cell line RAW 264.7 cells were washed with PBS and lysed in an ice-cold RIPA buffer (Tris-HCl, pH 7.2, 25 mM; 0.1% SDS; 1% Triton X-100; 1% sodium deoxycholate; 0.15 M NaCl; 1 mM EDTA) containing 1 mM phenylmethyl sulphonyl fluoride (PMSF), 10 μg/mL aprotinin, 1 mM sodium ortho-vanadate, and 5 μg/mL leupeptin. Protein concentrations were determined using the BCA method (Pierce, Rockford, Ill.). The samples (50 μg of protein) were mixed with 5-fold of sample buffer containing 0.3 M Tris-HCl (pH 6.8), 25% 2-mercaptoethanol, 12% sodium dodecyl sulphate (SDS), 25 mM EDTA, 20% glycerol, and 0.1% bromophenol blue. The mixtures were boiled at 100° C. for 5 min, prerun on a stacking gel, and then resolved by 12% SDS-polyacrylamide minigels at a constant current of 20 mA. For western blot, proteins on the gel were electro-transferred onto a […] immobile polyvinylidene fluoride (PVDF) membrane with a transfer buffer composed of 25 mM Tris-HCl (pH 8.9), 192 mM glycine, and 20% methanol, as described by Pan et al. (2000). Membrane blocking was then carried out at room temperature for 1 h in blocking solution (20 mM Tris-HCl pH 7.4, 125 mM NaCl, 0.2% Tween 20, 1% bovine serum albumin, and 0.1% sodium azide). The membrane was incubated with the primary antibody of iNOS and COX-2 at 4° C. overnight. The membranes were subsequently probed with selected IgG antibody conjugated to horseradish peroxidase (Transduction Laboratories, Lexington, Ky.) and visualized using enhanced chemiluminescence (ECL, Amersham). The densities of the bands were quantitated using a densitometer (AlphaImager 2200 System). All the membranes were stripped and reprobed for β-actin (Sigma Chemical Co., St. Louis, Mo.) as loading control. […] The inhibition of iNOS induction by compounds of the disclosure may be due to down regulation of iNOS gene expression. EGCG and compounds of the disclosure with antioxidant activities may inhibit the ROS/RNS-mediated activation of NF-κB, the transcription factor that promotes gene expression of iNOS. […] The difference in their ability to inhibit production of iNOS and COX-2 may be due to other mechanisms involved in addition to blocking the NF-κB signalling pathway. EGCG and its derivatives may also suppress the cytokine production by breaking down the mRNA and protein of iNOS and COX-2 to varied degrees. (7b) Inhibition Against LPS-Induced NO Production in RAW 264.7 Macrophage The LPS-induced NO production by the macrophages was determined as nitrite concentration in the culture medium according to the Griess reaction. The culture medium of the control and treated cells was collected and centrifuged. An aliquot (100 μL) of the supernatant was mixed with an equal volume of Griess reagent. The absorbance of the mixture at 550 nm was measured with an ELISA plate reader (Dynatech MR-7000; Dynatech Laboratories, Chantilly, Va., USA). […]

iNOS = iNOS protein expression in LPS-stimulated RAW 264.7 macrophages (western blot); type: cell-based, murine; details: LPS 100 ng/ml, RAW 264.7, western blot; 20 and 40 μM for 1a-1c
Experimental: RAW 264.7 cells were cultured in Rosewell Park Memorial Institute (RPMI) 1640 media (without phenol red) supplemented with 10% endotoxin-free, heat-inactivated fetal calf serum, 100 units/ml penicillin, and 100 μg/ml streptomycin. When the cells reached a density of 2-3×10^6 cells/ml, they were activated by incubation in a medium containing E. coli lipopolysaccharide (LPS) (100 ng/ml). Various concentrations of compounds of the disclosure in dimethyl sulphoxide (DMSO) were added together with LPS. Cells were treated with 0.05% DMSO as the vehicle control. The stimulated murine macrophage cell line RAW 264.7 cells were washed with PBS and lysed in an ice-cold RIPA buffer (Tris-HCl, pH 7.2, 25 mM; 0.1% SDS; 1% Triton X-100; 1% sodium deoxycholate; 0.15 M NaCl; 1 mM EDTA) containing 1 mM phenylmethyl sulphonyl fluoride (PMSF), 10 μg/mL aprotinin, 1 mM sodium ortho-vanadate, and 5 μg/mL leupeptin. Protein concentrations were determined using the BCA method (Pierce, Rockford, Ill.). The samples (50 μg of protein) were mixed with 5-fold of sample buffer containing 0.3 M Tris-HCl (pH 6.8), 25% 2-mercaptoethanol, 12% sodium dodecyl sulphate (SDS), 25 mM EDTA, 20% glycerol, and 0.1% bromophenol blue. The mixtures were boiled at 100° C. for 5 min, prerun on a stacking gel, and then resolved by 12% SDS-polyacrylamide minigels at a constant current of 20 mA. For western blot, proteins on the gel were electro-transferred onto a […] immobile polyvinylidene fluoride (PVDF) membrane with a transfer buffer composed of 25 mM Tris-HCl (pH 8.9), 192 mM glycine, and 20% methanol, as described by Pan et al. (2000). […] The densities of the bands were quantitated using a densitometer (AlphaImager 2200 System). […] (7b) Inhibition Against LPS-Induced NO Production in RAW 264.7 Macrophage The LPS-induced NO production by the macrophages was determined as nitrite concentration in the culture medium according to the Griess reaction. […] The absorbance of the mixture at 550 nm was measured with an ELISA plate reader (Dynatech MR-7000; Dynatech Laboratories, Chantilly, Va., USA). […]

EGCG-docosapentaenoate [Compound 10a]
Inhibition of NO production (in words) [1]: inhibited by 10a (EGCG-DPA) more effectively than DPA
Inhibition of PGE2 production (PGE2 production): inhibited
Inhibition of COX-2 mRNA expression (COX-2 mRNA): inhibited
Inhibition of iNOS mRNA expression (iNOS mRNA): inhibited
Inhibition of COX-2 protein expression (COX-2): inhibited
Inhibition of iNOS protein expression (iNOS): inhibited
